Assay results taken from ChEMBL document CHEMBL3885861, “Open TG-GATES”.

Species: Rattus norvegicus
Assay: Open TG-GATES - Regimen: Daily Repeat
Assay type: toxicity, organism-based, Sprague-Dawley
Set-up: regimen Daily Repeat, gender Male, age 6 weeks
Conditions: in vivo, po, route gavage; for TP / gamma-GTP / ALP / ALT / AST / BUN / CRE / DBIL / GLC / IP / K / LDH / Na / PL / RALB / TBIL / TC / TG: tissue Plasma; for APTT / Bas / Eos / Fbg / Hb / Ht / Lym / MCH / MCHC / MCV / Mono / Neu / PT / Plat / RBC / Ret / WBC: tissue Blood; for KIDNEY_L / KIDNEY_R / KIDNEY_TOTAL: tissue Kidney; for LIVER: tissue Liver
[1] = 0 mg/kg, […], dose level Control, time 28 day
[2] = 45 mg/kg, 72 h, dose level Low, time 3 day
[3] = 45 mg/kg, […], dose level Low, time 7 day
[4] = 45 mg/kg, […], dose level Low, time 14 day
[5] = 45 mg/kg, […], dose level Low, time 28 day

Structure (SMILES): CC(CCc1ccccc1)NCC(O)c1ccc(O)c(C(N)=O)c1 (centres undefined) [LABETALOL]
- TP [1]: 6.3 g/dL
- gamma-GTP [1]: 1 IU/L
- TERMINAL_BW [2]: 254.7 g
- APTT [2]: 16 s
- Bas [2]: 0%
- Eos [2]: 0.8%
- Fbg [2]: 279.4 mg/dL
- Hb [2]: 13.6 g/dL
- Ht [2]: 40.1%
- Lym [2]: 77%
- MCH [2]: 21.7 pg
- MCHC [2]: 33.9%
- MCV [2]: 64.1 fL
- Mono [2]: 3%
- Neu [2]: 18.6%
- PT [2]: 13 s
- Plat [2]: 116.6 x10_4/uL
- RBC [2]: 626.8 x10_4/ul
- Ret [2]: 6.8%
- WBC [2]: 105.9 x10_2/uL
- KIDNEY_L [2]: 1.1 g
- KIDNEY_R [2]: 1.1 g
- KIDNEY_TOTAL [2]: 2.2 g
- LIVER [2]: 11.6 g
- ALP [2]: 1517 IU/L
- ALT [2]: 42.4 IU/L
- AST [2]: 69.8 IU/L
- BUN [2]: 15 mg/dL
- CRE [2]: 0.2 mg/dL
- DBIL [2]: 0.014 mg/dL
- GLC [2]: 186.2 mg/dL
- IP [2]: 7.4 mg/dL
- K [2]: 4 meq/L
- LDH [2]: 64.2 IU/L
- Na [2]: 143.4 meq/L
- PL [2]: 160.8 mg/dL
- RALB [2]: 2.7 g/dL
- TBIL [2]: 0.026 mg/dL
- TC [2]: 87.6 mg/dL
- TG [2]: 116.6 mg/dL
- TP [2]: 5.9 g/dL
- gamma-GTP [2]: 1.2 IU/L
- TERMINAL_BW [3]: 288.7 g
- TERMINAL_BW [4]: 350.6 g
- TERMINAL_BW [5]: 411.6 g
- APTT [3]: 17.4 s
- Bas [3]: 0%
- Eos [3]: 1%
- Fbg [3]: 315.6 mg/dL
- Hb [3]: 14.1 g/dL
- Ht [3]: 40.9%
- Lym [3]: 73%
- MCH [3]: 21.4 pg
- MCHC [3]: 34.6%
- MCV [3]: 61.9 fL
- Mono [3]: 3.4%
- Neu [3]: 22.2%
- PT [3]: 12.8 s
- Plat [3]: 114.7 x10_4/uL
- RBC [3]: 661 x10_4/ul
- Ret [3]: 5.1%
- WBC [3]: 95.2 x10_2/uL
- APTT [4]: 17.7 s
- Bas [4]: 0%
- Eos [4]: 0.8%
- Fbg [4]: 291.6 mg/dL
- Hb [4]: 14.5 g/dL
- Ht [4]: 41.8%
- Lym [4]: 76.4%
- MCH [4]: 21.4 pg
- MCHC [4]: 34.7%
- MCV [4]: 61.5 fL
- Mono [4]: 2.8%
- Neu [4]: 19.6%
- PT [4]: 12.9 s
- Plat [4]: 104.8 x10_4/uL
- RBC [4]: 679.2 x10_4/ul
- Ret [4]: 4.4%
- WBC [4]: 86.7 x10_2/uL
- APTT [5]: 17.8 s
- Bas [5]: 0.4%
- Eos [5]: 1.4%
- Fbg [5]: 276.4 mg/dL
- Hb [5]: 15.5 g/dL
- Ht [5]: 44.6%
- Lym [5]: 75.6%
- MCH [5]: 19.7 pg
- MCHC [5]: 34.6%
- MCV [5]: 56.9 fL
- Mono [5]: 2.6%
- Neu [5]: 19.4%
- PT [5]: 13.1 s
- Plat [5]: 101.1 x10_4/uL
- RBC [5]: 785.2 x10_4/ul
- Ret [5]: 2.4%
- WBC [5]: 108 x10_2/uL
- KIDNEY_L [3]: 1.1 g
- KIDNEY_R [3]: 1.1 g
- KIDNEY_TOTAL [3]: 2.2 g
- KIDNEY_L [4]: 1.3 g
- KIDNEY_R [4]: 1.3 g
- KIDNEY_TOTAL [4]: 2.6 g
- KIDNEY_L [5]: 1.4 g
- KIDNEY_R [5]: 1.4 g
- KIDNEY_TOTAL [5]: 2.8 g
- LIVER [3]: 12.4 g
- LIVER [4]: 12.9 g
- LIVER [5]: 15.8 g
- ALP [3]: 1674.4 IU/L
- ALT [3]: 45 IU/L
- AST [3]: 71.4 IU/L
- BUN [3]: 15.4 mg/dL
- CRE [3]: 0.2 mg/dL
- DBIL [3]: 0.016 mg/dL
- GLC [3]: 192.2 mg/dL
- K [3]: 3.7 meq/L
- LDH [3]: 59.2 IU/L
- Na [3]: 143.2 meq/L
- PL [3]: 163.2 mg/dL
- RALB [3]: 2.7 g/dL
- TBIL [3]: 0.024 mg/dL
- TC [3]: 89.6 mg/dL
- TG [3]: 117.2 mg/dL
- TP [3]: 5.9 g/dL
- gamma-GTP [3]: 1.2 IU/L
- ALP [4]: 1374 IU/L
- ALT [4]: 46.4 IU/L
- AST [4]: 71.8 IU/L
- BUN [4]: 17 mg/dL
- CRE [4]: 0.2 mg/dL
- DBIL [4]: 0.014 mg/dL
- GLC [4]: 191.8 mg/dL
- IP [4]: 8 mg/dL
- K [4]: 3.8 meq/L
- LDH [4]: 57.2 IU/L
- Na [4]: 144.4 meq/L
- PL [4]: 155.4 mg/dL
- RALB [4]: 2.8 g/dL
- TBIL [4]: 0.028 mg/dL
- TC [4]: 76.8 mg/dL
- TG [4]: 131.2 mg/dL
- TP [4]: 6.1 g/dL
- gamma-GTP [4]: 1.2 IU/L
- ALP [5]: 1004.4 IU/L
- ALT [5]: 48.8 IU/L
- AST [5]: 70.4 IU/L
- BUN [5]: 16.6 mg/dL
- CRE [5]: 0.2 mg/dL
- DBIL [5]: 0.018 mg/dL
- GLC [5]: 179.2 mg/dL
- IP [5]: 6.8 mg/dL
- K [5]: 3.7 meq/L
- LDH [5]: 70.6 IU/L
- Na [5]: 143.2 meq/L
- PL [5]: 151.4 mg/dL
- RALB [5]: 2.9 g/dL
- TBIL [5]: 0.038 mg/dL
- TC [5]: 79.2 mg/dL
- TG [5]: 118.2 mg/dL
